Experimental data taken from ChEMBL document CHEMBL3352092, “Ferrier sulfamidoglycosylation of glycals catalyzed by nitrosonium tetrafluoroborate: towards new carbonic anhydrase glycoinhibitors” (Bioorg Med Chem, 2014).

Tests used:
Carbonic anhydrase 9 = Carbonic anhydrase 9 (Homo sapiens, UniProt Q16790); experiment: Inhibition of human recombinant CA9 catalytic domain by stopped flow CO2 hydration assay
Carbonic anhydrase 1 = Carbonic anhydrase 1 (Homo sapiens, UniProt P00915); experiment: Inhibition of human full length CA1 by stopped flow CO2 hydration assay
Carbonic anhydrase 1, sequence (P00915 whole entry): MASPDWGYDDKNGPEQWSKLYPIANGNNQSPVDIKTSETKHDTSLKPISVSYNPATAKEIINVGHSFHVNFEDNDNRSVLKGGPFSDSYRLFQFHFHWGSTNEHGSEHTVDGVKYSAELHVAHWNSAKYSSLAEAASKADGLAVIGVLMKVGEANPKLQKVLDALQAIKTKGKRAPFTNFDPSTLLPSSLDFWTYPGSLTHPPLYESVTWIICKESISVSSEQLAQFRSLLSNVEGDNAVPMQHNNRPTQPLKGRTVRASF

Carbonic anhydrase 2 = Carbonic anhydrase 2 (Homo sapiens, UniProt P00918); experiment: Inhibition of human full length CA2 by stopped flow CO2 hydration assay

Structure (SMILES) | Ki (Carbonic anhydrase 9) [nM] | Ki (Carbonic anhydrase 1) [nM] | Ki (Carbonic anhydrase 2) [nM]
CC(=O)OC[C@H]1OC(NS(=O)(=O)NO)C=C[C@@H]1OC(C)=O (stereo partly drawn) | 90 | 813 | 
CC(=O)OC[C@H]1OC(NS(=O)(=O)NO)C=C[C@H]1OC(C)=O (stereo partly drawn) | 79 | 752 | 
CC(=O)O[C@H]1C=CC(NS(=O)(=O)NO)OC1 (stereo partly drawn) | 54 | > 10000 | > 10000
CC(=O)O[C@@H]1C=CC(NS(=O)(=O)NO)OC1 (stereo partly drawn) | 44 | > 10000 | > 10000
CC(=O)O[C@@H]1C=CC(NS(=O)(=O)NO)O[C@H]1C (stereo partly drawn) | 47 | > 10000 | 
O=S(=O)(NO)NC1C=C[C@@H](O)[C@@H](CO)O1 (stereo partly drawn) | 44 | 917 | 

Now those with a lower Ki (Carbonic anhydrase 9), led by results:

Ki (Carbonic anhydrase 9) [nM] | Ki (Carbonic anhydrase 1) [nM] | Ki (Carbonic anhydrase 2) [nM] | Structure (SMILES)
9 | > 10000 |  | O=S(=O)(NO)NC1C=C[C@H](O)[C@@H](CO)O1 (stereo partly drawn)
9 | > 10000 |  | O=S(=O)(NO)NC1C=C[C@@H](O)CO1 (stereo partly drawn)
8 | 927 |  | O=S(=O)(NO)NC1C=C[C@H](O)CO1 (stereo partly drawn)
8 | > 10000 | > 10000 | C[C@@H]1OC(NS(=O)(=O)NO)C=C[C@H]1O (stereo partly drawn)
